According to patent US7189856B2 (priority 2001, dated 2007):
Where a name gives a salt, the structure may show the parent alone.

Target: T1, human SSTR2 receptors (Homo sapiens, UniProt P30874)
T1 construct: expressed in transfected cells; host or cells: CHO-K1 cells
Experiment: inhibition of [125I] Somatostatin binding to human SSTR2 receptors expressed in CHO-K1 cells
Procedure: FIG. 1 illustrates the logarithmic concentration-response curves for inhibition of [^125I] […] Test compounds were tested in duplicate at all concentrations. The average percent inhibition of duplicate was used for plotting the displacement curves, fitted by non-linear regression.
FIG. 2 illustrates the logarithmic concentration-response curves for inhibition of [^125I] […] Test compounds were tested in duplicate at all concentrations. The average percent inhibition of duplicate was used for plotting the displacement curves, fitted by non-linear regression.

T1 sequence (P30874 whole entry): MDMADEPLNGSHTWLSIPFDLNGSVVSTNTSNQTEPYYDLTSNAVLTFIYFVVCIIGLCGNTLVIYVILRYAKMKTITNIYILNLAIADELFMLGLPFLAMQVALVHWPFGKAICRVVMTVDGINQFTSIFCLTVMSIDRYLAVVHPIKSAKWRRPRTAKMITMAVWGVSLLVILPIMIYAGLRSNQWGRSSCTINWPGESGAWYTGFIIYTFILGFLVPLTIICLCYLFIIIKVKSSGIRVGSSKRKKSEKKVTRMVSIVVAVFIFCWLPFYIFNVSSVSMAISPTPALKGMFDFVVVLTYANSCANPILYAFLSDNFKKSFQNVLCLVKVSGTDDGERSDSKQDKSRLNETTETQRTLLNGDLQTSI

`CN(C)C(=O)c1cc(S(=O)(=O)N2C(=O)N(CC3CCC[C@@H](CN)C3)C(=O)[C@@H]2Cc2c[nH]c3ccccc23)ccc1Oc1ccc(O)c(Cl)c1` (single isomer, unassigned) [Example 15a HCl salt] was tested, and the IC50 was 290 ± 39.5 pM.

`CN(C)C(=O)c1cc(S(=O)(=O)N2C(=O)N(C[C@@H]3CCC[C@H](CN)C3)C(=O)[C@@H]2Cc2c[nH]c3ccccc23)ccc1Oc1ccc(O)c(Cl)c1` (single isomer, unassigned) [Example 15b HCl salt] gave an IC50 of 1300 ± 183 pM.
